Target: T1, human vanilloid receptor VR-1 (hVR1) (Homo sapiens, UniProt Q8NER1)
T1 construct: expressed in transfected cells; host or cells: HEK293 Tet-on cells (hVR1-HEK293), expression induced with doxycycline
Assay: Calcium influx test of vanilloid receptor (capsaicin-induced, Fluo-3/AM, hVR1-HEK293 cells)
Assay type: cell-based
Details: for inhibition at 0.2 µM / Inhibitory effect (%) on calcium influx: single concentration of compound 200 nM, 1 μM capsaicin; for inhibition at 0.2 µM: read-out: Inhibitory effect (%) on calcium influx; for IC50: calcium influx induced by 1 μM capsaicin, read-out: Inhibitory effect IC50 (nM) on calcium influx
Procedure: In order to measure an activity of the biaryl benzoimidazole derivative of the invention as an antagonist, a calcium influx test was performed.
An hVR1-HEK293 cell line is a cell line, in which a Human Embryonic Kidney (HEK) 293 Tet-on cell is transformed with a human vanilloid-1 gene (pTRE2hyg-hVR1, 7.8 kb). The cell line can regulate a VR-1 expression, depending on the administration of a tetracycline analogue, doxycycline. At two days before the calcium influx test, the cell line was cultured in media containing doxycycline to induce the VR-1 expression, and then used. First, the hVR1-HEK293 cells were cultured in T75 flasks to have a density of about 80%, and then detached from the bottom of the flasks by using trypsin. The detached cells were centrifuged and collected. Then, the cells were suspended in media containing 1 μg/mL doxycycline, and diluted to have a concentration of 2×10^5 to 4×10^5 cells/mL. 100 μL of the suspended cells were added to each well of 96-well black plate, cultured at 37° C. and 5% CO2 cell incubator for two days, and then used in the calcium influx test.
The compound was dissolved in dimethyl sulfoxide (DMSO), and then used for the calcium influx test.
In order to measure the calcium influx […], the cells were cultured in a solution containing Fluo-3/AM, which is a calcium indicator, at 37° C. for 90 minutes, so as to be permeated by a fluorescent dye. […] 193 μL D-PBS were added to each well, and then the compound was added thereto in various concentrations. To measure an activity as an antagonist, the cells were treated with 1 μM capsaicin to stimulate the calcium influx. The inhibitory effect of the compound when calcium influx was induced by 1 μM capsaicin was measured depending on its concentration using a fluorescence spectrometer, and the obtained data were substituted into a hill equation to analyze the values.
The inhibitory effect on calcium influx was measured with a single concentration of the compounds of the invention (200 nM), and the result thereof are shown in Table 2.

T1 sequence (Q8NER1 whole entry): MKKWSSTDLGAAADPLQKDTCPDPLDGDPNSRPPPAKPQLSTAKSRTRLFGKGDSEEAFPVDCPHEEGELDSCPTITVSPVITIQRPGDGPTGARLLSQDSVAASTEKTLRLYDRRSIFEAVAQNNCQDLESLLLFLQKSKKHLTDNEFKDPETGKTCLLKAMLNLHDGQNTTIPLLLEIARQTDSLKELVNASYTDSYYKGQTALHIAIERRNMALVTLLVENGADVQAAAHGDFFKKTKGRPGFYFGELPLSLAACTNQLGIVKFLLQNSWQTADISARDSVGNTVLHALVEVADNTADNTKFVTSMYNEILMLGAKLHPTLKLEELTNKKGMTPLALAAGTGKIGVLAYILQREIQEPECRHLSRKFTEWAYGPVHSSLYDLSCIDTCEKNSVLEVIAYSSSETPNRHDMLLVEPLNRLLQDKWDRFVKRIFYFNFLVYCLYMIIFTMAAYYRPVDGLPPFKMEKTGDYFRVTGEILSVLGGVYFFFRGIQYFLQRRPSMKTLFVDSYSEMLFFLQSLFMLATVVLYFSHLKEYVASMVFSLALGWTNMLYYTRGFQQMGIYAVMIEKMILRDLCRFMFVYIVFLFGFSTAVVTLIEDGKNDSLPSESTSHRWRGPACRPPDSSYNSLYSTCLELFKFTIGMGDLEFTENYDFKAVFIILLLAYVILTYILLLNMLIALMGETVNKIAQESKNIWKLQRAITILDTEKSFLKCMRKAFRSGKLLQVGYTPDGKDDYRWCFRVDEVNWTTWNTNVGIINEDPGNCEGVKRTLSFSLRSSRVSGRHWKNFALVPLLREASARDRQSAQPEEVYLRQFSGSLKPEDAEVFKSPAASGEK

| SMILES | inhibition at 0.2 µM | IC50 | Inhibitory effect (%) on calcium influx |
| --- | --- | --- | --- |
| OCc1cnc(-c2ccc(-c3nc4ccc(N5CCOCC5)cc4[nH]3)cc2)c(Cl)c1 [Compound 26, {5-chloro-6-[4-(6-morpholin-4-yl-1H-benzoimidazol-2-yl)-phenyl]-pyridin-3-yl}-methanol] | 5% |  |  |
| CN1CCN(c2ccc3nc(-c4ccc(-c5ncc(CO)cc5Cl)cc4)[nH]c3c2)CC1 [Compound 27, (5-chloro-6-{4-[6-(4-methyl-piperazin-1-yl)-1H-benzoimidazol-2-yl]-phenyl}-pyridin-3-yl)-methanol] | 4% |  |  |
| OCc1cnc(-c2ccc(-c3nc4ccc(C(F)(F)F)cc4[nH]3)cc2)c(Cl)c1 [Compound 28, {5-chloro-6-[4-(6-trifluoromethyl-1H-benzoimidazol-2-yl)-phenyl]-pyridin-3-yl}-methanol] | 2.8% | 181 nM |  |
| OCc1cnc(-c2ccc(-c3nc4ccc(Br)cc4[nH]3)cc2)c(Cl)c1 [Compound 30, {6-[4-(6-bromo-1H-benzoimidazol-2-yl)-phenyl]-5-chloro-pyridin-3-yl}-methanol] | 27.8% | 171 nM |  |
| OCc1cnc(-c2ccc(-c3nc4ncc(Br)cc4[nH]3)cc2)c(Cl)c1 [Compound 31, {6-[4-(6-bromo-1H-imidazo[4,5-b]pyridin-2-yl)-phenyl]-5-chloro-pyridin-3-yl}-methanol] | 1.7% |  |  |
| OCc1cnc(-c2ccc(-c3nc4c(Br)cc(C(F)(F)F)cc4[nH]3)cc2)c(Cl)c1 [Compound 32, {6-[4-(4-bromo-6-trifluoromethyl-1H-benzoimidazol-2-yl)-phenyl]-5-chloro-pyridin-3-yl}-methanol] | 6% |  |  |
| OCc1cnc(-c2ccc(-c3nc4c(Br)cc(Br)cc4[nH]3)cc2)c(Cl)c1 [Compound 33, {5-chloro-6-[4-(4,6-dibromo-1H-benzoimidazol-2-yl)-phenyl]-pyridin-3-yl}-methanol] | 4.7% |  |  |
| FC(F)(F)c1ccc2nc(-c3ccc(-c4ncc(CBr)cc4Cl)cc3)[nH]c2c1 [Compound 34, 2-[4-(5-bromomethyl-3-chloro-pyridin-2-yl)-phenyl]-6-trifluoromethyl-1H-benzoimidazole] | 13% |  |  |
| CC(C)(C)c1ccc2nc(-c3ccc(-c4ncc(CBr)cc4Cl)cc3)[nH]c2c1 [Compound 35, 2-[4-(5-bromomethyl-3-chloro-pyridin-2-yl)-phenyl]-6-tert-butyl-1H-benzoimidazole] | 59.6% |  |  |
| Clc1cc(CBr)cnc1-c1ccc(-c2nc3ccc(Br)cc3[nH]2)cc1 [Compound 36, 6-bromo-2-[4-(5-bromomethyl-3-chloro-pyridin-2-yl)-phenyl]-1H-benzoimidazole] | 9.6% |  |  |
| C=Cc1cnc(-c2ccc(-c3nc4ccc(C(F)(F)F)cc4[nH]3)cc2)c(Cl)c1 [Compound 37, 2-[4-(3-chloro-5-vinyl-pyridin-2-yl)-phenyl]-6-trifluoromethyl-1H-benzoimidazole] | 5.3% |  |  |
| C=Cc1cnc(-c2ccc(-c3nc4ccc(C(C)(C)C)cc4[nH]3)cc2)c(Cl)c1 [Compound 38, 6-tert-butyl-2-[4-(3-chloro-5-vinyl-pyridin-2-yl)-phenyl]-1H-benzoimidazole] | 11.7% |  |  |
| C=Cc1cnc(-c2ccc(-c3nc4ccc(Br)cc4[nH]3)cc2)c(Cl)c1 [Compound 39, 6-bromo-2-[4-(3-chloro-5-vinyl-pyridin-2-yl)-phenyl]-1H-benzoimidazole] | 3.1% |  |  |
| C=Cc1cnc(-c2ccc(-c3nc4c(Br)cc(C(F)(F)F)cc4[nH]3)cc2)c(Cl)c1 [Compound 41, 4-bromo-2-[4-(3-chloro-5-vinyl-pyridin-2-yl)-phenyl]-6-trifluoromethyl-1H-benzoimidazole] | -2.1% |  |  |
| C=Cc1cnc(-c2ccc(-c3nc4ccc(Cl)cc4[nH]3)cc2)c(Cl)c1 [Compound 42, 6-chloro-2-[4-(3-chloro-5-vinyl-pyridin-2-yl)-phenyl]-1H-benzoimidazole] | 0.9% |  |  |
| O=C(O)c1cnc(-c2ccc(-c3nc4ccc(C(F)(F)F)cc4[nH]3)cc2)c(Cl)c1 [Compound 43, 5-chloro-6-[4-(6-trifluoromethyl-1H-benzoimidazol-2-yl)-phenyl]-nicotinic acid] | -3.1% |  |  |

| SMILES | inhibition at 0.2 µM | IC50 | Inhibitory effect (%) on calcium influx |
| --- | --- | --- | --- |
| CC(C)(C)c1ccc2nc(-c3ccc(-c4ncc(C(=O)O)cc4Cl)cc3)[nH]c2c1 [Compound 44, 6-[4-(6-tert-butyl-1H-benzoimidazol-2-yl)-phenyl]-5-chloro-nicotinic acid] | -1% |  |  |
| O=C(O)c1cnc(-c2ccc(-c3nc4ccc(Br)cc4[nH]3)cc2)c(Cl)c1 [Compound 45, 6-[4-(6-bromo-1H-benzoimidazol-2-yl)-phenyl]-5-chloro-nicotinic acid] | 3.3% |  |  |
| O=C(O)c1cnc(-c2ccc(-c3nc4ncc(Br)cc4[nH]3)cc2)c(Cl)c1 [Compound 46, 6-[4-(6-bromo-1H-imidazo[4,5-b]pyridin-2-yl)-phenyl]-5-chloro-nicotinic acid] | 7.2% |  |  |
| O=C(O)c1cnc(-c2ccc(-c3nc4c(Br)cc(C(F)(F)F)cc4[nH]3)cc2)c(Cl)c1 [Compound 47, 6-[4-(4-bromo-6-trifluoromethyl-1H-benzoimidazol-2-yl)-phenyl]-5-chloro-nicotinic acid] | 5.7% |  |  |
| COC(=O)c1cnc(-c2ccc(-c3nc4ncc(Br)cc4[nH]3)cc2)c(Cl)c1 [Compound 51, 6-[4-(6-bromo-1H-imidazo[4,5-b]pyridin-2-yl)-phenyl]-5-chloro-nicotinic acid methyl ester] | 1.1% |  |  |
| COC(=O)c1cnc(-c2ccc(-c3nc4c(Br)cc(C(F)(F)F)cc4[nH]3)cc2)c(Cl)c1 [Compound 52, 6-[4-(4-bromo-6-trifluoromethyl-1H-benzoimidazol-2-yl)-phenyl]-5-chloro-nicotinic acid methyl ester] | 20% |  |  |
| CC(=O)OCc1cnc(-c2ccc(-c3nc4ccc(C(C)(C)C)cc4[nH]3)cc2)c(Cl)c1 [Compound 54, acetic acid 6-[4-(6-tert-butyl-1H-benzoimidazol-2-yl)-phenyl]-5-chloro-pyridin-3-yl methyl ester] | 14.6% | 319 nM |  |
| CC(=O)OCc1cnc(-c2ccc(-c3nc4ccc(Br)cc4[nH]3)cc2)c(Cl)c1 [Compound 55, acetic acid 6-[4-(6-bromo-1H-benzoimidazol-2-yl)-phenyl]-5-chloro-pyridin-3-yl methyl ester] |  |  | 0.9% |
| CC(=O)OCc1cnc(-c2ccc(-c3nc4ncc(Br)cc4[nH]3)cc2)c(Cl)c1 [Compound 56, acetic acid 6-[4-(6-bromo-1H-imidazo[4,5-b]pyridin-2-yl)-phenyl]-5-chloro-pyridin-3-yl methyl ester] |  |  | 6.5% |
| CC(=O)OCc1cnc(-c2ccc(-c3nc4c(Br)cc(C(F)(F)F)cc4[nH]3)cc2)c(Cl)c1 [Compound 57, acetic acid 6-[4-(4-bromo-6-trifluoromethyl-1H-benzoimidazol-2-yl)-phenyl]-5-chloro-pyridin-3-yl methyl ester] |  |  | 16.9% |
| O=Cc1cnc(-c2ccc(-c3nc4ccc(C(F)(F)F)cc4[nH]3)cc2)c(Cl)c1 [Compound 58, 5-chloro-6-[4-(6-trifluoromethyl-1H-benzoimidazol-2-yl)-phenyl]-pyridine-3-carbaldehyde] | 39.1% | 94.5 nM |  |
| CC(C)(C)c1ccc2nc(-c3ccc(-c4ncc(C=O)cc4Cl)cc3)[nH]c2c1 [Compound 59, 6-[4-(6-tert-butyl-1H-benzoimidazol-2-yl)-phenyl]-5-chloro-pyridine-3-carbaldehyde] | 82.5% | 29.5 nM |  |
| CCNC(=O)c1cnc(-c2ccc(-c3nc4ccc(C(F)(F)F)cc4[nH]3)cc2)c(Cl)c1 [Compound 61, 5-chloro-N-ethyl-6-[4-(6-trifluoromethyl-1H-benzoimidazol-2-yl)-phenyl]-nicotinamide] | 23.4% |  |  |
| CCNC(=O)c1cnc(-c2ccc(-c3nc4ccc(C(C)(C)C)cc4[nH]3)cc2)c(Cl)c1 [Compound 62, 6-[4-(6-tert-butyl-1H-benzoimidazol-2-yl)-phenyl]-5-chloro-N-ethyl-nicotinamide] | 54.3% | 126 nM |  |
| CCNC(=O)c1cnc(-c2ccc(-c3nc4ccc(Br)cc4[nH]3)cc2)c(Cl)c1 [Compound 63, 6-[4-(6-bromo-1H-benzoimidazol-2-yl)-phenyl]-5-chloro-N-ethyl-nicotinamide] | 38.3% | 397 nM |  |
| CCNC(=O)c1cnc(-c2ccc(-c3nc4ncc(Br)cc4[nH]3)cc2)c(Cl)c1 [Compound 64, 6-[4-(6-bromo-1H-imidazo[4,5-b]pyridin-2-yl)-phenyl]-5-chloro-N-ethyl-nicotinamide] | 11.1% |  |  |
